Series [1] concerns human engineered cardiac tissue. Description: Validation of engineered cardiac tissue with drugs of known cardiac effects: beat frequency. The class given is cell-based. From the text:
Levels were normalized first to β actin and subsequently to the tissue engineered bone control (mean ± s.d., n = 3). […] All scale bars: 100 µm.
The cardiac tissue model was generated from iPS-derived cardiomyocytes and fibroblasts encapsulated in fibrin hydrogel, as in our previous studies. The tissue was formed between two elastic pillars causing cell elongation and alignment, and subjected to electrical stimulation to synchronously contract and work against the pillars.
Specifically, linsitinib was dissolved at a 10 mM concentration in DMSO (Corning) and mixed in with the respective cell medium at a […] concentration unless otherwise noted. Vehicle treatments involved just the addition of DMSO at identical volumes as a control. Tissues were randomly assigned to experimental groups. Medium was changed every day.
To measure the cardiac contractility online, we took contractility videos of the tissues that were analyzed using the native MATLAB code we previously developed. Tissue contractility was measured by tracking the change in tissue area as a function of time. Acquired video frames were inverted and an automated intensity threshold was used to identify cell location in the video frame. First, a baseline time point in the video corresponding to a relaxed tissue state was selected. Absolute differences in cell area from the baseline frame were then calculated to create a time course of cell area changes over time. The resulting time courses were analyzed using a native MATLAB (MATHWorks) automated peak finding algorithm to determine locations of maximum cell contractions in the time profiles. Beat period lengths were determined from the length of time between the pairs of local maxima, and the beat frequencies were determined by inverting beat periods. The rate of proarrhythmic events was calculated by the ratio of the number of proarrhythmic events over the total number of beats.

Series [2] relates to cardiac muscle. Description: Drug distribution with functional matching in InterOrgan platform: cardiac beat frequency. The class given is cell-based, human. The settings on record: 10 µM introduced into the reservoir at t = 0; assessed at 24 and 72 hours.
Series [3] concerns skin tissues. The series is described as follows: Doxorubicin-induced toxicity: skin functional assays. It is filed as cell-based, human. The settings on record: 30 µM Dox, 72 hours; both Isolated and InterOrgan cultures. The method, then:
Skin functional assays: For drug-induced toxicity studies, electrical current was run through the tissues by placing electrodes on either side of the skin tissue and the change in resistance was subsequently measured and read as a function of the barrier. All tissues were analyzed using the same electrode holder setup to standardize the positions of electrodes with respect to the tissue. To analyze the transport of molecules through the skin barrier, Fluorescein (FITC, ThermoFisher, D3306) powder was added to the epidermis of skin tissues. After 3 hrs, 100 µl of supernatant from the dermal region below the skin tissue was sampled and assayed on a plate reader (BioTex Synergy HTX).

For series [4], the system named is engineered cardiac tissues. The series is described as follows: Doxorubicin-induced toxicity: heart function assays. It is filed as cell-based, human. To be noted: 30 µM Dox, 72 hours. Here is the method: Heart function assays: Cardiac excitability, force, and beat rate were obtained using our previously established protocols. Cardiac troponin secretion was determined using the Human Cardiac Troponin I ELISA Kit (Abcam, ab200016) according to the manufacturer’s instructions.

Series [5] has as its system Liver tissues. Description: Doxorubicin-induced toxicity: liver function assays. It is filed as cell-based, human. To be noted: 30 µM Dox, 72 hours. The method, then: Liver function assays: To assess liver function, […] and urea secretion using a Human ELISA kit (Bethyl, E88-129) and a Urea Nitrogen Test Kit (Fisher Scientific, SB-0580-250), respectively. Comparing these samples to the provided standard, concentrations of albumin and urea were calculated and compared to the secretion for each tissue at Day 0. Assays were performed according to the manufacturer’s instructions.

In series [6] the test system is Bone tissues. The series is described as follows: Doxorubicin-induced toxicity: bone function assays. The class given is cell-based, human. The settings on record: 30 µM Dox, 72 hours. The method, then: Bone function assays: To assess the bone’s ability to remodel its matrix, supernatant samples were analyzed for […], (TRAP, Kamiya Biomedical Company, KT-008) and bone sialoprotein (Human Bone Sialoprotein ELISA Kit, Mybiosource, cat. no. MBS261861) after 28 days of culture. These assays were performed according to the manufacturer’s instructions.

Series [7] concerns all tissues in the InterOrgan platform. Description: Doxorubicin-induced toxicity in InterOrgan platform: viability and metabolism of all tissues. It is filed as cell-based, human. The settings on record: 30 µM Dox, 72 hours after exposure. The method, then:
After the acute dose, each engineered tissue was assessed for cell viability, glucose consumption, and mitochondrial activity 72 hours after exposure (FIGS. 13D-F). Functional features for each engineered tissue 72 hours after acute exposure (n=3-5) are shown in FIGS. 13G-J. Over a thousand miRNAs from control and Dox-exposed cardiac tissues were differentially expressed under Isolated and InterOrgan conditions (FIG. 13K).
Treatment with 30 µM Dox, corresponding to the clinically administered cumulative dosage shown to induce cardiotoxicty, was delivered to tissues in the InterOrgan platform through the vascular channel and compared against the Isolated condition (FIG. 13A). […] We also detected decreased cardiac contractility and increased troponin release, both clinical measures of cardiac cell damage (FIG. 13G).
Metabolic Assays: Glucose, lactate, glutamate and glutamine were measured in parallel using the bioluminescent Glucose-Glo™ (Promega, cat. no. J6021), Lactate-Glo™ (Promega, cat. No. J5021), Glutamine/Glutamate-Glo™ (Promega, cat. no. J8021) and Glutamate-Glo™ (Promega, cat. no. J7021) assays according to the manufacturer’s protocols.

A short description of series [8]: FITC circulation in the platform (absorption and diffusive transport). It is filed as physicochemical. The method, then:
We also circulated fluorescent FITC, which has similar chemical properties as linsitinib including hydrophobicity and molecular weight, and measured its distribution across the 2 tissue chambers in the platform (FIG. 26F). The simulated and empirical results agreed: FITC also reached uniform concentration in all areas of the platform in within 12 hours, after reaching equilibrium across both models at approximately 6 hours. This is significant, since linsitinib is known to have a short half-life of approximately 5 hours. The delayed drug distribution by diffusion through tissues observed here has been documented as an issue for treating solid tumors in patients, with chemotherapeutic concentrations decreasing exponentially with distance from tumor blood vessels and often being limited to the peripheries of tumors even 12 hours after injection.
Fluorescein isothiocyanate (FITC, 10 mM in DMSO; Sigma Aldrich) was circulated for the integrated platform to determine potential hydrophobic small molecule absorption, given its physical and chemical properties. FITC was added at a concentration of 10 µM to 8 mL of 1:1 bone tumor/cardiac mixed media and introduced into the platform. The control was the FITC-containing media in a standard 24-multiwell plate (Corning). Aliquots from the reservoir, bone tumor, and cardiac tissue chambers were taken at 12, 24, 48 and 72 hours and measured for fluorescent signal using a spectrophotometer (Biotek).
Measurements of FITC concentrations were used to estimate the spread of linsitinib within the platform via diffusive circulating transport. Four independent platforms were filled with 8 mL of 1:1 mixed media each, after which 10 µM of FITC was injected into the reservoir. The platforms were connected to the peristaltic pumps run at 100 rpm to generate physiologically relevant fluid flow rate and shear stress. Aliquots were taken from the reservoir, bone and cardiac chambers at 0, 2, 4, 6, and 12 hours post injection, and assayed for fluorescence signal on a spectrophotometer (Biotek).

For series [9], the system named is endothelial barrier. The series is described as follows: Endothelial barrier permeability response to thrombin. It is filed as cell-based, human. To be noted: endothelialized mesh inserts under flow shear. The text has this:
Vascularization The generation of a patient-specific vascular barrier is critical for functionally connecting tissue compartments while maintaining each tissues, as well as vascular perfusion, under optimal culture conditions resulting in phenotypic stability and maturation, analogous to the separation of interstitial and intravascular compartments in vivo. Transwell mesh inserts in each tissue chamber were coated with fibronectin and seeded with ECs and supporting MSCs with 2:1 ratio (FIG. 36). A stable endothelial barrier was then established by exposure to flow shear (ramped up from 1 to 5 dyn/cm^2 over 5 days of culture). To physiologically integrate engineered tumors and host tissues by vascular flow, the endothelialized membrane needs to separate the interstitial and intravascular spaces, enabling vasculature-mediated tissues crosstalk. […] Such response to an inflammatory agent is critical for metastatic extravasation of cancer cells. The endothelial barrier allowed optimization of culture conditions for each tissue - akin to compartmentalization in the body that avoids the use of “common” media. This approach promoted long term culture (4-12 weeks) of matured tissues, with on-line readouts (cell tracking, viability, function) in longitudinal and dynamic studies. […]

Setting [10] is: isoproterenol dose-response study.
The mark [11] stands for this setting: 10 µM injected into the reservoir.

Where a name gives a salt, the structure may show the parent alone. Some results are limits rather than exact numbers.

Here are results for 8 compounds from US20230287316A1, “INTER-ORGAN PLATFORM WITH TISSUE-SPECIFIC NICHES FOR A MICROPHYSIOLOGICAL SYSTEM ON A CHIP” (THE TRUSTEES OF COLUMBIA UNIVERSITY IN THE CITY OF NEW YORK, priority 2020, published 2023).

With `CCCCc1oc2ccccc2c1C(=O)c1cc(I)c(OCCN(CC)CC)c(I)c1` [Amiodarone, amiodarone hydrochloride], the beat frequency entry in series [1] (amiodarone 2.418 µM over 48 hours) is recorded as “expected decreases in the beat frequency”.

In the case of `Cn1c(=O)c2c(ncn2C)n(C)c1=O` [caffeine], the beat frequency result in [1] (caffeine 50 mM) was “physiologic increases in beat frequency”.

As to `CN(CCOc1ccc(NS(C)(=O)=O)cc1)CCc1ccc(NS(C)(=O)=O)cc1` [dofetilide], the “beat rate of cardiac muscle” value in series [2] is given as “decreased”.

Consider `COc1cccc2c1C(=O)c1c(O)c3c(c(O)c1C2=O)C[C@@](O)(C(=O)CO)C[C@@H]3O[C@H]1C[C@H](N)[C@H](O)[C@H](C)O1` [doxorubicin], for which, in [3], the diffusional permeability result is “increased” and the electrical resistance result is “decreased”. In [4], the cardiac contractility result was “decreased” and the troponin release result is “increased”. For the same compound, in series [5], the albumin result is on record as “decreased” and the urea production entry was “unaffected”. In [6], the TRAP responses entry is reported as “stable” and the cellularity result was “decreased”. Moreover, the beat frequency entry in series [1] (doxorubicin 1 µM over 72 hours) is “initially increased, and then decreased following prolonged exposure to the drug”. For the same compound, in series [7], the Cell viability entry was “significantly decreased”, the glucose consumption result is recorded as “significantly decreased” and the mitochondrial activity result is given as “significantly decreased”.

On to `CNC[C@H](O)c1ccc(O)c(O)c1` [epinephrine], for which, in series [2], the “beat rate of cardiac muscle” value is recorded as “increased”.

As to `CC(C)NCC(O)c1ccc(O)c(O)c1` (stereo not shown) [isoproterenol, isoproterenol hydrochloride], in [1] (setting [10]), the “EC50 (beat frequency)” value is “expected values of EC50” and the beat frequency result is on record as “increased”.

For the compound Fluorescein isothiocyanate [FITC], in [8] (10 µM circulated for 72 hours, polysulfone platform compared to multi-well plates), the “absorption by the platform” value is recorded as “without any measurable absorption by the platform”. Further, in series [8] (setting [11]), the “time to equilibrium across both models” value is on record as “approximately 6 hours” and the “time to uniform concentration in all areas of the platform” value was ≤ 12 h.

For thrombin, the barrier permeability entry in series [9] is reported as “physiologic increase in barrier permeability”.
